Literature values as cited in patent US20240165186A1, “Synergistically Formulated Compound for Mitochondria Supplementation and Enhancement” (priority 2022, published 2024).

Details: relative to vitamin C; no test described

Which “times more effective than vitamin C as an antioxidant” value does the source give for `O=C(O)c1cc(C(=O)O)c2c(n1)C(=O)C(=O)c1cc(C(=O)O)[nH]c1-2` [PQQ, Pyrroloquinoline Quinone] here?
The value was at most 1000 times.
